Results reported in patent publication US20150297534A1, “METHODS AND COMPOSITIONS FOR THE MEDIATION OF NSAID-INDUCED REACTIONS” (NuBioPharma, LLC, priority 2014, published 2015).

Tests used:
[1] = system: PGE2 formation in human whole blood; assay: PGE2 formation in LPS-stimulated human whole blood (in vitro incubation); type: cell-based; conditions: LPS 10 µg/ml, 18 hours; for inhibition of PGE2 formation: alone or in combination; for inhibition of PGE2 compared with 6-keto PGF1α formation (FIG. 1): varied concentrations, compound alone
Protocol: Determination of PGE2 and 6-keto PGF1α Formation in Human Whole Blood: Peripheral blood from healthy adult volunteers, who had not received any medication for at least 2 weeks under informed consent, was obtained by venipuncture and collected in a vacutainer blood collection tube containing heparin. Aliquots of whole blood (0.8 ml) were mixed with aspirin (50 μM) and volume was adjusted to 1 ml with PBS containing 6 mM glucose. The blood was incubated with the indicated compounds for 5 mins. at room temperature; and then stimulated with lipopolysaccharide (10 μg/ml) for 18 h at 37° C. Prostanoid formation was stopped on ice and the samples were centrifuged (2300 g, 10 min, 4° C.), and 6-keto PGF1α was quantified in the supernatant using High Sensitivity ELISA Kit for 6-keto PGF1α according to the manufacturer's protocols (Calbiochem). PGE2 was determined after solid-phase extraction, RP-HPLC and an ELISA according to the procedures of Koeberle et al. [J Pharmacol Exp Ther. 2008; 326(3):975-82].
Synergistic interaction between compounds was analyzed by the sensitization method (Harvey, R. J., J. Theor. Biol. 74: 411-437, 1978). Briefly, sensitization is measured as the ratio between observed and expected inhibition of PGE2. The expected level of activity (Ae) is calculated by Aβ=1−((1−A1)*(1−A2)) (^3) where A1 and A2 are the activities of drugs 1 and 2 alone at the concentration used in the combination (Harvey, R. J., J. Theor. Biol. 74: 411-437, 1978).

TNF-α [2] = assay: TNF-α in LPS-stimulated human whole blood (in vitro incubation); type: cell-based; conditions: whole human blood stimulated with LPS (FIG. 4)
Protocol: (§1) Determination of Inflammatory Cytokines (IL-1β & TNF-α) in Human Whole Blood: Blood from healthy adult volunteers was obtained in vacutainer blood collection tubes containing heparin as described above. Aliquots of whole blood (0.2 ml) were diluted with serum-free medium (RPMI-SF) in 24-well culture plates and volume was adjusted to 1 ml. The blood was incubated with the indicated compounds for 5 minutes at room temperature, and then stimulated with lipopolysaccharide (10 μg/ml) for 6 h at 37° C. with 5% CO2. Reaction was stopped on ice, the samples were centrifuged (2300 g, 10 mins., 4° C.), and of Inflammatory Cytokines IL-1β& TNF-α were estimated in the supernatant using High Sensitivity ELISA Kits according to the manufacturer's protocols (R&D Biosystems).

IL-1β = IL-1β in LPS-stimulated human whole blood (in vitro incubation); type: cell-based; conditions: whole human blood stimulated with LPS (FIG. 5); read-out: suppression of IL-1 beta, IC50
Protocol: as §1

PGE2 = assay: Healthy volunteer crossover study: PGE2 production in LPS-stimulated blood after oral dosing; type: in vivo, human; conditions: LPS stimulation
Protocol: Peripheral blood from healthy adult volunteers, who had not received any medication for at least 2 weeks under informed consent, was obtained by venipuncture and collected in a vacutainer blood collection tube containing heparin. Aliquots of whole blood (0.8 ml) were mixed with aspirin (50 μM) and volume was adjusted to 1 ml with PBS containing 6 mM glucose. The blood was incubated with the indicated compounds for 5 mins. at room temperature; and then stimulated with lipopolysaccharide (10 μg/ml) for 18 h at 37° C. […] PGE2 was determined after solid-phase extraction, RP-HPLC and an ELISA according to the procedures of Koeberle et al. [J Pharmacol Exp Ther. 2008; 326(3):975-82]. Human Healthy Volunteer Clinical Study: Volunteers with acute or chronic diseases, medical history of gastrointestinal ulcers or allergy to NSAIDs were not included. Volunteers were not permitted to receive any NSAIDs for 2 weeks before and throughout the duration of the study. The study was conducted in an open-label, crossover design with a seven-day washout period between each treatment. […] Administration of the study medication was supervised by the investigator to ensure that the drug had been swallowed. […] An aliquot of blood was used for determination of PGE2 and TNF-α after LPS stimulation as described above. […] A Blood sample (6 ml), immediately prior to dosing and at 105 minutes after dosing was obtained as described above. […] A blood sample (6 ml), immediately prior to dosing and at 105 min after dosing was obtained as described above.

6-keto PGF1α = assay: Healthy volunteer crossover study: 6-keto PGF1α production in LPS-stimulated blood after oral dosing; type: in vivo, human; conditions: single oral dose, blood 105 min after dosing, LPS stimulation, SE in parentheses
Protocol: Peripheral blood from healthy adult volunteers, who had not received any medication for at least 2 weeks under informed consent, was obtained by venipuncture and collected in a vacutainer blood collection tube containing heparin. Aliquots of whole blood (0.8 ml) were mixed with aspirin (50 μM) and volume was adjusted to 1 ml with PBS containing 6 mM glucose. The blood was incubated with the indicated compounds for 5 mins. at room temperature; and then stimulated with lipopolysaccharide (10 μg/ml) for 18 h at 37° C. […] PGE2 was determined after solid-phase extraction, RP-HPLC and an ELISA according to the procedures of Koeberle et al. [J Pharmacol Exp Ther. 2008; 326(3):975-82]. […] A Blood sample (6 ml), immediately prior to dosing and at 105 minutes after dosing was obtained as described above. […] A blood sample (6 ml), immediately prior to dosing and at 105 min after dosing was obtained as described above.

[3] = Healthy volunteer study: total plasma concentration of ibuprofen by HPLC; type: in vivo, human; conditions: SE in parentheses; for concentration at 105 min: plasma
Protocol: Human Healthy Volunteer Clinical Study: Volunteers with acute or chronic diseases, medical history of gastrointestinal ulcers or allergy to NSAIDs were not included. Volunteers were not permitted to receive any NSAIDs for 2 weeks before and throughout the duration of the study. The study was conducted in an open-label, crossover design with a seven-day washout period between each treatment. Volunteer 1 was given a single oral dose of 400 mg of ibuprofen (Baby Advil Suspension) with 240 mL of water. […] A Blood sample (6 ml), obtained via an indwelling catheter inserted into an arm vein, and was collected into a tube containing heparin immediately prior to an ibuprofen dosing and at the following times thereafter: 65, 105, and 115 mins. after dosing. An aliquot of blood was used for determination of PGE2 and TNF-α after LPS stimulation as described above. Plasma was separated by centrifugation at 1000 g for 10 minutes at room temperature from the remaining blood for ibuprofen assay. After seven days (washout period), the same volunteer was given a single oral dose of 100 mg ibuprofen (Baby Advil Suspension) with 240 mL of water. A 6.0 mL blood sample for the determination of PGE2 and TNF-α after LPS stimulation and for the estimation of plasma levels of ibuprofen were drawn into tubes through an indwelling cannula before dosing and at 75, 125, and 155 mins. after dosing.
Total plasma concentrations of ibuprofen were determined by high-performance liquid chromatography (HPLC.) system that consisted of a Model 510 pump, a Model 486 variable wavelength UV detector and a computer loaded with the Millenium software, all from Waters Associates (Milford, Mas). To 100 μl of plasma was added 100 μl of internal standard solution (naproxen 10 μg/ml in 65% methanol and 1% acetic acid) followed by […]. Following vortex-mixing (30 s) and centrifugation (1000 g, 5 mins.), the supernatant was evaporated to dryness, and reconstituted in 100 μl of 65% methanol and 1% acetic acid immediately prior to injection onto a reversed phase column (ρBondaPak C18) eluted with methanol:1% acetic acid (65:35), pumped at 1.0 ml min. The column eluent was monitored at 210 nm. The height of the ibuprofen peak was divided by the height of the internal standard peak and this ratio was used to determine ibuprofen concentrations from a standard curve of ibuprofen.
A Blood sample (6 ml), immediately prior to dosing and at 105 minutes after dosing was obtained as described above. Production of PGE2, 6-keto PGF1α and TNF-α after LPS stimulation and plasma concentrations were determined as described above.
A blood sample (6 ml), immediately prior to dosing and at 105 min after dosing was obtained as described above. Production of PGE2, 6-keto PGF1α and TNF-α after LPS stimulation and plasma concentrations were determined as described above.

TNF-α [4] = assay: Healthy volunteer study: TNF-α in LPS-stimulated blood after ibuprofen dosing; type: in vivo, human; conditions: volunteer 1; single oral dose 400 mg ibuprofen; blood 65 minutes after dosing, LPS stimulation (FIG. 3)
Protocol: as §1
Human Healthy Volunteer Clinical Study: Volunteers with acute or chronic diseases, medical history of gastrointestinal ulcers or allergy to NSAIDs were not included. Volunteers were not permitted to receive any NSAIDs for 2 weeks before and throughout the duration of the study. The study was conducted in an open-label, crossover design with a seven-day washout period between each treatment. Volunteer 1 was given a single oral dose of 400 mg of ibuprofen (Baby Advil Suspension) with 240 mL of water. Administration of the study medication was supervised by the investigator to ensure that the drug had been swallowed. […]

gastric ulcers = conditions: ibuprofen 2400 mg/day, daily use for 24 weeks, arthritis patients; cited from earlier work
[5] = curcumin 10 µM, ibuprofen 20 µM
[6] = Human Volunteer 1, single oral dose, ibuprofen 50 mg (curcumin 200 mg, phosphatidylcholine 400 mg where included), 105 min after dosing
[7] = Human Volunteer 2, single oral dose, ibuprofen 40 mg (curcumin 200 mg, phosphatidylcholine 400 mg where included), 105 min after dosing

For COc1cc(/C=C/C(=O)CC(=O)/C=C/c2ccc(O)c(OC)c2)ccc1O [Curcumin], the “inhibition of PGE2 formation” value ([1]; curcumin 3 µM, ibuprofen 4 µM) was “did not inhibit PGE2 formation”, the “inhibition of PGE2 formation” value [1, 5] was “no detectable inhibition” and the “inhibition of PGE2 compared with 6-keto PGF1α formation (FIG. 1)” value [1] was “inhibited PGE2 more potently than 6-keto PGF1α”. The “suppression of ibuprofen-induced stimulation of TNF-α” value (TNF-α [2]; curcumin 10 µM co-incubated with ibuprofen 20 µM) was “suppressed the deleterious stimulation of TNF-α” and the IC50 (IL-1β) was 14 µM.

With CC(C)Cc1ccc(C(C)C(=O)O)cc1 (stereo not shown) [Ibuprofen] the “inhibition of PGE2 formation” value ([1]; curcumin 3 µM, ibuprofen 4 µM) was “did not inhibit PGE2 formation”, the “inhibition of PGE2 formation” value [1, 5] was 38% and the “inhibition of PGE2 compared with 6-keto PGF1α formation (FIG. 1)” value [1] was “inhibited the formation of both the prostanoids PGE2 and 6-keto PGF1α, to about the same extent”. For the same compound, the “stimulation of TNF-α” value (TNF-α [2]; ibuprofen 20 µM and 100 µM alone) was “dose-dependent stimulation of TNF-α”, the “PGE2 (% inhibition)” value (PGE2; Human Volunteer 1, single oral dose ibuprofen 100 mg, SE in parentheses) was 71 % inhibition and the “PGE2 (% inhibition)” value (PGE2; Human Volunteer 1, single oral dose ibuprofen 400 mg, SE in parentheses) was 88 (2) % inhibition. For the same compound, the “PGE2 (% inhibition)” value (PGE2; Human Volunteer 1, single oral dose ibuprofen 400 mg, SE in parentheses, listed as ibuprofen) was “about 90 % inhibition”, the “PGE2 (% inhibition)” value (PGE2; Human Volunteer 1, single oral dose, ibuprofen 50 mg (curcumin 200 mg, phosphatidylcholine 400 mg where included), blood 105 min after dosing, SE of 3 measurements in parentheses) was 56 (3) % inhibition and the “PGE2 (% inhibition)” value (PGE2; Human Volunteer 2, single oral dose, ibuprofen 40 mg (curcumin 200 mg, phosphatidylcholine 400 mg where included), blood 105 min after dosing, SE in parentheses) was 29 % inhibition. For the same compound, the “6-keto PGF1α (% inhibition)” value (6-keto PGF1α; Human Volunteer 1, ibuprofen 50 mg (curcumin 200 mg, phosphatidylcholine 400 mg where included)) was 61 (6) % inhibition, the “6-keto PGF1α (% inhibition)” value (6-keto PGF1α; Human Volunteer 2, ibuprofen 40 mg (curcumin 200 mg, phosphatidylcholine 400 mg where included)) was 35 % inhibition and the “Plasma ibuprofen (ug/ml)” value ([3]; Human Volunteer 1, single oral dose ibuprofen 100 mg) was 3.0 (0.5) ug/ml. The “Plasma ibuprofen” value ([3]; Human Volunteer 1, single oral dose ibuprofen 100 mg, listed as ibuprofen) was 3.0 µg/mL, the “Plasma ibuprofen (ug/ml)” value ([3]; Human Volunteer 1, single oral dose ibuprofen 400 mg) was 44.0 (3.0) ug/ml and the “Plasma ibuprofen (ug/ml)” value [3, 6] was 1.7 (0.15) ug/ml. For the same compound, the “Plasma ibuprofen (ug/ml)” value [3, 7] was 0.42 (0.06) ug/ml, the concentration at 105 min [3, 6] was 1.7 µg/mL and the concentration at 105 min [3, 7] was 0.42 µg/mL. The “increase in TNF-α after ibuprofen dosing” value (TNF-α [4]) was 3.5 fold and the “incidence of gastric ulcers” value (gastric ulcers) was 22.9%.
